The values below are quoted from earlier work in patent US20070081962A1, “Novel delivery of immune response modifiers for removal of chronic tattoos” (priority 2005, published 2007).

For this series, the system named is freshly applied tattoos. The conditions noted are these: guinea pigs tattooed with commonly used tattoo inks; topical 5% cream, initiated within six hours of the tattoo application and continued for seven days.

As for `CC(C)Cn1cnc2c(N)nc3ccccc3c21` [irmiquimod, 1-(2-methylpropyl)-1H-imidazo[4,5-c]quinolin-4-amine], the “removal of freshly applied tattoos” value is “effective for removing freshly applied tattoos”.
